The values that follow come from PMC8533176, “1,5-Benzodiazepin-2(3H)-ones: In Vitro Evaluation as Antiparkinsonian Agents” (Antioxidants, 2021).

Where only a bound is given, the exact number is not on record here.

Series [1] concerns SH-SY5Y cells. The series is described as follows: Calcein-AM cell viability assay under H2O2. The series is classed as cell-based, human. The following applies: H2O2 250 µM 24 h; 5, 10, 20, and 40 µM; Figure 12. As to the method:
Calcein-AM is a fluorescence-based cell viability assay. Calcein-acetoxymethyl (AM) is a non-fluorescent compound that enters the cells where intracellular esterases hydrolyze the acetoxymethyl group. The fluorescent calcein is retained in the living cells, and it can be detected at λex = 495 and λem = 550 nm. After treatment, all the samples were washed with PBS and incubated with 2 μM calcein-AM for 30 min at 37 °C, 5% CO2, and protected from light. The fluorescence was measured in a Varioskan microplate reader (Thermo Fisher Scientific, Vantaa, Finland) with λex = 490 and λem = 520 nm filters. Cell viability was calculated from samples treated with 1% Triton X-100 for 30 min at 37 °C, 5% CO2.
Calcein-AM is a membrane permeant, not a fluorescent compound. Only live cells with intact plasma membrane have esterases that hydrolyze the compound into the green fluorescent dye calcein, which is retained in the cytoplasm. The fluorescent signal obtained is proportional to the number of living cells in the sample. […] Microscopy images in Figure S3 show the neuroprotection activity observed with Calcein-AM for derivative 18.

The test system of series [2] is SH-SY5Y cells. The series is described as follows: Mitochondrial membrane potential (JC-1). The series is classed as cell-based, human. The following applies: 400 µM H2O2 4 h; compounds 24 h before at different concentrations. Here is the method:
The fluorescent dye 5,5′,6,6′-tetrachloro-1,1′,3,3′-tetraethylbenzimidazolylcarbocyanine iodide (JC-1) was used for measuring MMP [89]. A decrease in fluorescence intensity represents mitochondrial membrane depolarization. For fluorescence ratio detection under oxidative stress conditions, 96-well culture black clear bottom plates were seeded with 3 × 10^3 SH-SY5Y cells, and after 24-h incubation, they were treated with the test compound and left out for 24 h. Then, the cells were exposed to different H2O2 concentrations for 4 h. After the incubation period, the cells were washed twice with Hanks buffer and then stained with 5 µM JC-1 in culture media in the dark in a CO2 incubator at 37 °C for 20 min. At the end of the dye incubation period, cells were washed three times with Hanks buffer, and 200 µL of fresh buffer was added. Cells were analyzed with a Varioskan microplate reader. J-aggregate red fluorescence intensity was measured at λex = 535 nm and λem = 595 nm, while λem = 485 nm and λem = 535 nm was used for J-monomer green fluorescence. Results were expressed as the ratio of fluorescence intensity of J-aggregates to J-monomers. All the experiments were performed three times in quadruplicate for each compound concentration.

For series [3], the system named is SH-SY5Y cells. Briefly: Cytotoxicity, MTT assay, SH-SY5Y. The class given is cell-based. The conditions noted are these: Homo sapiens, MTT, cytotoxicity, read-out: SH-SY5Y IC50. Put shortly: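 Cells treated with 5–200 µM compound (DMSO vehicle, four replicates) after overnight attachment. Viability read by MTT reduction (2 h, 37 °C, dark; formazan in DMSO, A570) relative to vehicle controls; IC50 from dose–response regression.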
(In general: Tetrazolium assays rely on reduction of a dye to a coloured formazan, in cell work by metabolically active cells.)

Series [4] is described as follows: Kinetic solubility by UV spectrometry. The conditions noted are these: PBS 50 mM, aqueous buffer, kinetic from dmso stock. The class given is physicochemical. Put shortly:
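Compound from 20 mM DMSO stock was added to 10 mM PBS, shaken 2 h and filtered. The filtrate's UV absorbance (270–600 nm) was quantified against a 10–200 µM calibration curve in 50 mM PBS with 2% DMSO. Run in triplicate.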

Series [5] concerns SH-SY5Y cells. Briefly: Intracellular GSH recovery (monochlorobimane). The conditions noted are these: H2O2 250 µM 24 h; 5, 10 and 20 µM. The series is classed as cell-based, human. Here is the method: For intracellular GSH determination studies, the method of Senft et al. was used. In summary, 3 × 10^3 SH-SY5Y cells were seeded in 96-well culture black clear bottom plates and after 24 h were treated with the test compound for an additional 24 h. Then, they were exposed to H2O2 for 24 h. After the incubation period, cells were loaded with 30 µM mClB and incubated at 37 °C for 30 min in a CO2 incubator as described by Sebastia et al.. At the end of the mClB incubation period, fluorescence was measured with a Varioskan microplate reader at λex = 405 nm and λem = 475. Results are expressed as the percentage of the fluorescence increase compared with that of the control. Experiments were performed four times in triplicate.

A short description of series [6]: Apoptosis and necrosis by flow cytometry (Annexin V-PE/7-AAD). The following applies: human, SH-SY5Y cells. (In general: Flow cytometry measures light scatter and fluorescence of single cells or particles in a stream.)
For series [7], the system named is SH-SY5Y cells. Described as above. The following applies: 10 and 20 µM 24 h, then H2O2 1 mM 4 h.
Series [8] deals with SH-SY5Y cells. The series is described as follows: Resazurin cell viability assay under H2O2. The class given is cell-based, human. The conditions noted are these: H2O2 250 µM 24 h; Figure 10B. For orientation: Resazurin is reduced to fluorescent resorufin, in cell work by metabolically active cells.

On to `O=C1CC(c2ccccc2)=Nc2ccccc2N1` [Compound 18, 4-Phenyl-1H-1,5-benzodiazepin-2(3H)-one], for which the “Neuroprotection, Calcein-AM cell counting” value with SH-SY5Y cells [1] is reported as “statistically significant neuroprotectant activity”. For the same molecule, the MMP recovery with SH-SY5Y cells [2] is listed as 10–25%. The IC50 (usually the midpoint of a concentration-inhibition curve) with SH-SY5Y cells [3] is over 250 µM. For the same molecule, in series [4], the solubility (usually how much of the substance goes into solution per volume) is under 100 µM. The “intracellular GSH recovery” value with SH-SY5Y cells [5] is 18–20%. In series [6], the viability (usually the share of living cells, or the viability signal relative to a control) at 24 h, 10 µM came out at 26.6% and the viability at 24 h, 20 µM was 28.1%. For the same molecule, the “Effect on apoptotic cell populations” value in the series with SH-SY5Y cells [7] was “reduced the number of late apoptotic cells”. Moreover, the “Neuroprotection, cell viability (resazurin)” value in the series with SH-SY5Y cells [8] is “significant protection against the oxidative stress insult”.
